Patent US11845747B2, “Ester and carbonate pyrimidine compounds as JAK kinase inhibitors” (priority 2019, dated 2023)

How the values were obtained:
JAK2 = target: T1, JAK2 (Homo sapiens, UniProt O60674); assay: Biochemical LanthaScreen JAK2 kinase assay; details: Km ATP 3 μM; pKi from pIC50 by Cheng-Prusoff; read-out: JAK 2 (pKi) (converted)
T1 construct: GST; purchased Life Technologies
Description: (§1) Assay 1: Biochemical JAK and Tyk2 Kinase Assays A panel of four LanthaScreen JAK biochemical assays (JAK1, 2, 3 and Tyk2) were carried in a common kinase reaction buffer (50 mM HEPES, pH 7.5, 0.01% Brij-35, 10 mM MgCl2, and 1 mM EGTA). Recombinant GST-tagged JAK enzymes and a GFP-tagged STAT1 peptide substrate were obtained from Life Technologies. Serially or discretely diluted compounds were pre-incubated with each of the four JAK enzymes and the substrate in white 384-well microplates (Corning) at ambient temperature for 1 h. ATP was subsequently added to initiate the kinase reactions in 10 μL total volume, with 1% DMSO. […] Kinase reactions were allowed to proceed for 1 hour at ambient temperature before a 10 μL preparation of EDTA (10 mM final concentration) and Tb-anti-pSTAT1 ([…]) antibody (Life Technologies, 2 nM final concentration) in TR-FRET dilution buffer (Life Technologies) was added. The plates were allowed to incubate at ambient temperature for 1 h before being read on the EnVision reader (Perkin Elmer). Emission ratio signals (520 nm/495 nm) were recorded and utilized to calculate the percent inhibition values based on DMSO and background controls. For dose-response analysis, percent inhibition data were plotted vs. compound concentrations, and IC50 values were determined from a 4-parameter robust fit model with the Prism software (GraphPad Software). Results were expressed as pIC50 (negative logarithm of IC50) and subsequently converted to pKi (negative logarithm of dissociation constant, Ki) using the Cheng-Prusoff equation.

Tyk2 = target: T2, Tyk2 (Homo sapiens, UniProt P29597); assay: Biochemical LanthaScreen Tyk2 kinase assay; details: Km ATP 10 μM; pKi from pIC50 by Cheng-Prusoff; read-out: Tyk 2 (pKi) (converted)
T2 construct: GST; purchased Life Technologies
Description: as §1

[1] = In vitro skin S9 metabolic stability assay (mouse); type: in vitro ADME; details: mouse, s9, pH 7.4
Description: Assay 6: In Vitro Skin S9 Metabolic Stability Assay
The objective of this assay was to assess the metabolic stability of compounds in human and mouse skin S9 sub-fraction. Human and mouse skin S9 sub-fractions obtained from Bioreclamation-IVT (Baltimore, Md.) were thawed on ice and diluted into 0.1M potassium phosphate buffer pH 7.4 to yield final incubation protein concentrations of 1.0 mg/mL. Test compounds (10 mM) were diluted into phosphate buffer to yield final incubation concentrations of 0.2 μM and 2.0 μM. Incubations were conducted at 37° C. temperature following addition of 1 mM NADPH and test aliquots were taken at time points 0, 5, 10, 20, 30 and 45 minutes. Each aliquot was crashed into water with 3% formic acid and 1 μM internal standard. The resulting samples were injected onto an LC-MS/MS system for analysis.
For each incubation, the peak area of the analytes in each t0 aliquot was set to 100% and the peak areas from subsequent time point aliquots were converted to percentage of parent compound remaining relative to t0. The percentage of parent compound remaining at each time point was converted to natural log scale and plotted versus time in minutes to determine a disappearance half-life.

Caco-2 cell monolayers = assay: Caco-2 permeation assay; type: in vitro ADME; details: A to B, 5 μM compound, with Verapamil 25 μM, 120 minutes
Description: Assay 8: Caco-2 Permeation Assay The Caco-2 permeation assay was used as an indication of skin permeability. The assay measures the rate at which test compounds in solution permeate a cell monolayer (designed to mimic the tight junction of human small intestinal monolayers). CacoReady 24-well transwell plates were obtained from […], Calif.). The compounds were evaluated at a concentration of 5 μM from 10 mM DMSO stock solutions in duplicate (n=2). The passive permeability of the compounds tested was evaluated using Caco-2 cell monolayers along with Verapamil (25 μM) to inhibit P-gp transport proteins in the apical to basolateral (A-B) direction. The experiment was conducted in a 37° C., 5% CO2 incubator. Caco-2 culture media consisted of standard filtered DMEM, FCS 10%, L-Glutamine 1% and PenStrep 1%. Basal assay plate was prepared by adding 750 μL of transport buffer to A-B wells. A CacoReadyTM plate was prepared by removing the Caco-2 media from the apical wells and replacing with fresh transport media (200 μL repeated for a total of 3 washes). Blank media (200 μL) was then replaced with diluted compound for A-B wells. To begin the incubation, the basal plate was removed from the incubator and the apical section was added on top of it. […] The permeation coefficient (Kp, mean A to B+Verapamil […]) in cm/sec was calculated as dQ (flux)/(dt×Area×concentration).

T1 sequence (O60674 whole entry): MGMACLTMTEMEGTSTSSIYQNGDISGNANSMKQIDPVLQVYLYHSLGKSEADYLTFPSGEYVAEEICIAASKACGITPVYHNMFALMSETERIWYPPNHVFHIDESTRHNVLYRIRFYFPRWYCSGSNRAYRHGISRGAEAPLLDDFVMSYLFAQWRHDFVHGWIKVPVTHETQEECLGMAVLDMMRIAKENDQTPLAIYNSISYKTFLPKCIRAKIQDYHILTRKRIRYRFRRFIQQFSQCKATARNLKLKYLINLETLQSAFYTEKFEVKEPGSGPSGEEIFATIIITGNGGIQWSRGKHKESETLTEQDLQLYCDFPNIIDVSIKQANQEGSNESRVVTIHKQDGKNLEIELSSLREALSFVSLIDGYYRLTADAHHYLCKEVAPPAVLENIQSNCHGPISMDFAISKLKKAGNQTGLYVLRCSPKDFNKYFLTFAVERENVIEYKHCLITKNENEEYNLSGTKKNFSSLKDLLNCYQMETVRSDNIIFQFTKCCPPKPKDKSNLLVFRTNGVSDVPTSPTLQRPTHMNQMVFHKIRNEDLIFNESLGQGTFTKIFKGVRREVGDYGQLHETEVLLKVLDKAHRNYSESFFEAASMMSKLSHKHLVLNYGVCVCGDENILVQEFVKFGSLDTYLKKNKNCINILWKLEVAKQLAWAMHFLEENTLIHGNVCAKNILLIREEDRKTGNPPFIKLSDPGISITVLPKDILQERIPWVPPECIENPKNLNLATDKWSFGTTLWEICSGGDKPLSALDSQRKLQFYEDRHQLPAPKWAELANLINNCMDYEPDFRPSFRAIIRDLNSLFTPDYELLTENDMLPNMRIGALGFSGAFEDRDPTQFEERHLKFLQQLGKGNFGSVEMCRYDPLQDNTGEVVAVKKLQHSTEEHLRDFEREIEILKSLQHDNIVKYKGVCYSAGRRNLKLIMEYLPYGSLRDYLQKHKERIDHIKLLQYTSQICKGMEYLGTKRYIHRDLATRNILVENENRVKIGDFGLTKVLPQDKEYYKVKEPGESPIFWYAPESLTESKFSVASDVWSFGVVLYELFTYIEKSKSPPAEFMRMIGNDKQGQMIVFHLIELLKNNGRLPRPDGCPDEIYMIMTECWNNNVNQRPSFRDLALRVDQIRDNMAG
T2 sequence (P29597 whole entry): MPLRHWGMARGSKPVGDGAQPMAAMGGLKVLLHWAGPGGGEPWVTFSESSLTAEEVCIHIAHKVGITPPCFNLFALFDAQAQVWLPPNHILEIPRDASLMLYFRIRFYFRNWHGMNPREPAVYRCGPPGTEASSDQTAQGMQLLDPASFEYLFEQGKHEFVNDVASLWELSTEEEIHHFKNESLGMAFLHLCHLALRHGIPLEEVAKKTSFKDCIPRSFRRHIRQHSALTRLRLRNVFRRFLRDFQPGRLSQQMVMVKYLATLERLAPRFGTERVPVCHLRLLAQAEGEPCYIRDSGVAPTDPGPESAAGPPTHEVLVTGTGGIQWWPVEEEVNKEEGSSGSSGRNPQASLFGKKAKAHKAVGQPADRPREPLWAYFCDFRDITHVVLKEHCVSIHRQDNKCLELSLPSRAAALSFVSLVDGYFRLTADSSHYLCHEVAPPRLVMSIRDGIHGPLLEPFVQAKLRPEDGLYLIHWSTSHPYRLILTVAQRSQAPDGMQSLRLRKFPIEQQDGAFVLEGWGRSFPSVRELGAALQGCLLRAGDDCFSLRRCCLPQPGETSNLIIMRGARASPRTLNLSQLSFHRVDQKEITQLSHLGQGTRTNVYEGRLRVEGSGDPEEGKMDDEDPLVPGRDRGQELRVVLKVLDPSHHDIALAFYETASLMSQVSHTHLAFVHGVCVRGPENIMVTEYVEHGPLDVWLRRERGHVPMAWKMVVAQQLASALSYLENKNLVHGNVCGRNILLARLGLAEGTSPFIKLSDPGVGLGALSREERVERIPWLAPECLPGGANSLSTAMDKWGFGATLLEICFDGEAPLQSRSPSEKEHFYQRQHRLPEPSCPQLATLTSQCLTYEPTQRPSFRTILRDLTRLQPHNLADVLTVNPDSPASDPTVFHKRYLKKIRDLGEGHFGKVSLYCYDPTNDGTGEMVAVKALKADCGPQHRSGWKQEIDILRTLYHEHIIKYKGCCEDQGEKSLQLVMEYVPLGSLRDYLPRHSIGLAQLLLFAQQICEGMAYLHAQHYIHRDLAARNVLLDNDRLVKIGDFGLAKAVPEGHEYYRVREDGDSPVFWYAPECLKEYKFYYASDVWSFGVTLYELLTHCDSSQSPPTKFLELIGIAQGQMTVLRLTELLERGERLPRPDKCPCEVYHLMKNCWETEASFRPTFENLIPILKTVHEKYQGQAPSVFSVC

| SMILES | Ki (JAK2) | Ki (Tyk2) | half-life at 0.2 μM [1] | half-life at 2 μM [1] | Cacoverap Kp (Caco-2 cell monolayers) |
| --- | --- | --- | --- | --- | --- |
| CCS(=O)(=O)N1[C@@H]2CCC[C@H]1C[C@H](N(C)c1nc(COC(=O)C3CCOCC3)c(F)c(Nc3cc(C)[nH]n3)n1)C2 [Compound 7, (2-(((1R,3s,5S)-9-(ethylsulfonyl)-9-azabicyclo[3.3.1]nonan-3-yl)(methyl)amino)-5-fluoro-6-((5-methyl-1H-pyrazol-3-yl)amino)pyrimidin-4-yl)methyl tetrahydro-2H-pyran-4-carboxylate] | ≤ 100 pM | ≤ 100 pM |  |  |  |
| CCCCC(=O)OCc1nc(N(C)[C@@H]2C[C@H]3CCC[C@@H](C2)N3S(=O)(=O)CC)nc(Nc2cc(C)[nH]n2)c1F [Compound 4, (2-(((1R,3s,5S)-9-(ethylsulfonyl)-9-azabicyclo[3.3.1]nonan-3-yl)(methyl)amino)-5-fluoro-6-((5-methyl-1H-pyrazol-3-yl)amino)pyrimidin-4-yl)methyl pentanoate] |  |  | < 15 min | < 15 min |  |
| CCS(=O)(=O)N1[C@@H]2CCC[C@H]1C[C@H](N(C)c1nc(CO)c(F)c(Nc3cc(C)[nH]n3)n1)C2 [Compound M, (2-(((1R,3s,5S)-9-(ethylsulfonyl)-9-azabicyclo[3.3.1]nonan-3-yl)(methyl)amino)-5-fluoro-6-((5-methyl-1H-pyrazol-3-yl)amino)pyrimidin-4-yl)methanol] | ≤ 100 pM | 100 to 1000 pM |  |  | 42.3 ×10⁻⁶ cm/s |
| CCS(=O)(=O)N1[C@@H]2CCC[C@H]1C[C@H](N(C)c1nc(COC(=O)OC3CCOCC3)c(F)c(Nc3cc(C)[nH]n3)n1)C2 [Compound 9, (2-(((1R,3s,5S)-9-(ethylsulfonyl)-9-azabicyclo[3.3.1]nonan-3-yl)(methyl)amino)-5-fluoro-6-((5-methyl-1H-pyrazol-3-yl)amino)pyrimidin-4-yl)methyl (tetrahydro-2H-pyran-4-yl) carbonate] | ≤ 100 pM | 100 to 1000 pM |  |  |  |
| CCCC(=O)OCc1nc(N(C)[C@@H]2C[C@H]3CCC[C@@H](C2)N3S(=O)(=O)CC)nc(Nc2cc(C)[nH]n2)c1F [Compound 3, (2-(((1R,3s,5S)-9-(ethylsulfonyl)-9-azabicyclo[3.3.1]nonan-3-yl)(methyl)amino)-5-fluoro-6-((5-methyl-1H-pyrazol-3-yl)amino)pyrimidin-4-yl)methyl butyrate] |  |  | < 15 min | < 15 min |  |
| CCS(=O)(=O)N1[C@@H]2CCC[C@H]1C[C@H](N(C)c1nc(COC(=O)OC3CCCCC3)c(F)c(Nc3cc(C)[nH]n3)n1)C2 [Compound 6, cyclohexyl ((2-(((1R,3s,5S)-9-(ethylsulfonyl)-9-azabicyclo[3.3.1]nonan-3-yl)(methyl)amino)-5-fluoro-6-((5-methyl-1H-pyrazol-3-yl)amino)pyrimidin-4-yl)methyl) carbonate] | 100 to 1000 pM | 1000 to 10000 pM | < 15 min | < 15 min |  |
| CCC(=O)OCc1nc(N(C)[C@@H]2C[C@H]3CCC[C@@H](C2)N3S(=O)(=O)CC)nc(Nc2cc(C)[nH]n2)c1F [Compound 2, (2-(((1R,3s,5S)-9-(ethylsulfonyl)-9-azabicyclo[3.3.1]nonan-3-yl)(methyl)amino)-5-fluoro-6-((5-methyl-1H-pyrazol-3-yl)amino)pyrimidin-4-yl)methyl propionate] |  |  | 15 to 30 min | 15 to 30 min |  |
| CCS(=O)(=O)N1[C@@H]2CCC[C@H]1C[C@H](N(C)c1nc(COC(C)=O)c(F)c(Nc3cc(C)[nH]n3)n1)C2 [Compound 1, (2-(((1R,3s,5S)-9-(ethylsulfonyl)-9-azabicyclo[3.3.1]nonan-3-yl)(methyl)amino)-5-fluoro-6-((5-methyl-1H-pyrazol-3-yl)amino)pyrimidin-4-yl)methyl acetate] | ≤ 100 pM | ≤ 100 pM | < 15 min | 15 to 30 min |  |
